What was measured:
[1] = tested on: mouse embryonic fibroblasts (MEFs); assay: Reprogramming efficiency: GFP-positive cells by flow cytometry in KSP-Cre mTOM/mGFP reporter MEFs; type: cell-based; conditions: added to culture medium of 4TF treated MEFs for 7 days: Vitamin C 50 μg/ml, CHIR99021 3 μM, Forskolin 10 μM, Valproic Acid 1 mM, 5-Azacytidine 2 μM
Method: Next, we expressed candidate transcription factors in isolated MEFs by lentiviral transduction and analyzed GFP reporter-expression by flow cytometry (FIG. 2a and FIG. 11a).
Tissue was minced with a scalpel and digested with 0.25% Trypsin-EDTA for 30 min at 37° C. Trypsinization was stopped by addition of MEF Medium (MEFM: Dulbecco's modified Eagle's medium (DMEM), 10% fetal bovine serum (FBS), 2 mM L-glutamine, penicillin/streptomycin). After resuspension the cells were centrifuged and the pellet was resuspended in MEFM and plated on gelatine-coated 6-well plates for 3 days until they reached confluency. […] MEFs, TTFs and human fibroblasts were frozen in liquid nitrogen and used without further passaging for reprogramming experiments. For efficiency improvement experiments the following substances were added to the cell culture medium for 7 days: Vitamin C (Sigma, 50 μg/ml); CHIR99021 (Sigma, 3 μM); Forskolin (FocusBiomolecules, 10 μM); Valproic Acid (Sigma, 1 mM); 5-Azacytidine (Sigma, 2 μM).
For the infection of MEFs, TTFs, HFoFs and HFeFs virus concentrate was diluted 1:100 (high viral titers) to 1:1000 (low viral titers) in MEFM containing 10 μg/ml Polybrene and cells were incubated for 12 h. Viral infection was repeated five to seven times. After cultivation in MEFM for 7 days, MEFs and TTFs were analyzed for GFP expression by flow cytometry.
For flow cytometry analyses, cells were harvested, resuspended in FACS buffer (PBS supplemented with 3% FBS and 5 mM EDTA), filtered through a 50 μm cell strainer and analyzed using the 13-color LCR Fortessa FACS analyzer (Becton Dickinson).

[2] = target: organic cation transporter 2 (Oct2) (Mus musculus, UniProt O70577); conditions: 6 μg/ml cisplatin and 1 mM cimetidine versus cisplatin alone
Sequence of organic cation transporter 2 (Oct2) (O70577 whole entry): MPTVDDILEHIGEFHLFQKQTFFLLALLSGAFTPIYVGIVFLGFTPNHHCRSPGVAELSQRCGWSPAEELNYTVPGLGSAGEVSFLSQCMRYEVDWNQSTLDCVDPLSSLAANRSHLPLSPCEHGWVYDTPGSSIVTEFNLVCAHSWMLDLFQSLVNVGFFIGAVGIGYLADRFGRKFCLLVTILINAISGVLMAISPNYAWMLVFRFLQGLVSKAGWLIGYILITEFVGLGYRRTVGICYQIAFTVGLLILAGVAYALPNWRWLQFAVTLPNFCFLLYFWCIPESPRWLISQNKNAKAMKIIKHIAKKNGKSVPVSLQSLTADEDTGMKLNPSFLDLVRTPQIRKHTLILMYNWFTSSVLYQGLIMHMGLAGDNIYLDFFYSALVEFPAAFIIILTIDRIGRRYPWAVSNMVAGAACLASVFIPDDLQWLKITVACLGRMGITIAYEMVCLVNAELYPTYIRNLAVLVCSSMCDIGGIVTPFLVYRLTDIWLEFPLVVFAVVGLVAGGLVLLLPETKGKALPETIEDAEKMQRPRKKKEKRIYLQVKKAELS
Method: Drug treated cells and untreated controls were stained with 1 μg/ml DAPI (Invitrogen, D1306) for 5 minutes and fluorescence was measured via flow cytometry using the 405 nm laser for excitation. Dead cells were identified by comparing emission of DAPI stained cell and unstained controls using a 450/50 nm band pass filter. For Kim-1 expression analysis MEFs and iRECs were treated with Gentamicin (1 mg/ml for 48 h), stained for Kim-1 (Miltenyi Biiotec, 130-106-024) and analyzed by flow cytometry. […] Cells were harvested and analyzed as described above. Experiments were performed in triplicates and repeated three times.

[3] = tested on: iRECs; assay: Cytotoxicity assay (dead/apoptotic cells by DAPI flow cytometry) in iRECs versus MEFs; type: cell-based; conditions: Cisplatin 6 μg/ml 24 h; Tacrolimus 40 μM 24 h; Gentamicin 1 mg/ml 48 h
Method: (§1) Cells were harvested and analyzed as described above. Experiments were performed in triplicates and repeated three times.

[4] = tested on: iRECs; assay: Kim-1 expression analysis by flow cytometry after drug treatment; type: cell-based, mouse; conditions: Gentamicin 1 mg/ml for 48 h
Method: as §1

| Compound | effect on the percentage of GFP-positive cells [1] | other results |
| --- | --- | --- |
| Nc1ncn([C@@H]2O[C@H](CO)[C@@H](O)[C@H]2O)c(=O)n1 [5 azacytidine, 5-azacytidine] | did not have an effect | – |
| Cc1c[nH]c(-c2cnc(NCCNc3ccc(C#N)cn3)nc2-c2ccc(Cl)cc2Cl)n1 [CHIR99021] | did not have an effect | – |
| CN/C(=N/CCSCc1nc[nH]c1C)NC#N [Cimetidine] | – | cisplatin induced toxicity in iRECs [2]: decreased |
| O=C1O[C@H]([C@@H](O)CO)C(O)=C1O [Vitamin C] | did not have an effect | – |
| CCCC(CCC)C(=O)O [valproic acid] | did not have an effect | – |
| Gentamicin | – | rate of apoptosis in treated iRECs compared to MEFs [3]: significantly higher; Kidney injury molecule 1 (KIM1) in iRECs [4]: markedly increased |

From patent publication US11046932B2, “Method of producing renal cells from differentiated cells” (priority 2016, dated 2021)
